Values quoted from earlier work as cited in patent publication US20250009771A1, “PHARMACEUTICAL COMPOSITION FOR TREATING COLORECTAL CANCER, INCLUDING TUMOR-TARGETED LIPOSOMES CONTAINING PLATYCODIN D2” (INDUSTRY-UNIVERSITY COOPERATION FOUNDATION HANYANG …, priority 2023, published 2025).

Key:
BCL-XL = molecular target: T1, BCL-XL (Homo sapiens, UniProt Q07817); conditions: cited from earlier work
T1 construct: host or cells: adenomas and tumor organoids (endogenous protein)

[1] = slightly acidic pH; cited from earlier work

T1 sequence (Q07817 whole entry, species assumed): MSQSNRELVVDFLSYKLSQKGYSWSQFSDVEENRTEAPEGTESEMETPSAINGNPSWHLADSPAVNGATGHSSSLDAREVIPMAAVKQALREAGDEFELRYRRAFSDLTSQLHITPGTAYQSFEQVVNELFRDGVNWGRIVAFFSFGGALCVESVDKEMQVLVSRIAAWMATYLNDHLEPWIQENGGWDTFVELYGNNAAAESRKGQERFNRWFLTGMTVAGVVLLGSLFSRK

Compound | clonogenic potential of adenomas and tumor organoids (BCL-XL) | pK of insertion into the cell membrane [1]
CN(C)CC#Cc1ccc(OCCCc2sc(N3CCc4cccc(C(=O)Nc5nc6ccccc6s5)c4C3)nc2C(=O)O)c(F)c1 [A-1155463] | significantly impaired | –
GLAGLAGLLGLEGLLGLPLGLLEGLWLGLELEGN [ATRAM, pH-responsive acidity-triggered rational membrane peptide] | – | 6.5
